# Columns and labels:
# M tuberculosis (H37Rv) = experiment: MIC by modified microplate Alamar blue assay; type: cell-based
# E. coli (MG1655) WT = experiment: MIC by broth microdilution, wild-type E. coli; details: Escherichia coli, MG1655, read-out: Whole cell based antibacterial activity (MIC, µM) E. coli (MG1655) WT
# Human topoisomerase I = target: T1, Human topoisomerase I (Homo sapiens, UniProt P11387); experiment: Human topoisomerase I relaxation inhibition assay; type: biochemical
# T1 sequence (P11387 1-765): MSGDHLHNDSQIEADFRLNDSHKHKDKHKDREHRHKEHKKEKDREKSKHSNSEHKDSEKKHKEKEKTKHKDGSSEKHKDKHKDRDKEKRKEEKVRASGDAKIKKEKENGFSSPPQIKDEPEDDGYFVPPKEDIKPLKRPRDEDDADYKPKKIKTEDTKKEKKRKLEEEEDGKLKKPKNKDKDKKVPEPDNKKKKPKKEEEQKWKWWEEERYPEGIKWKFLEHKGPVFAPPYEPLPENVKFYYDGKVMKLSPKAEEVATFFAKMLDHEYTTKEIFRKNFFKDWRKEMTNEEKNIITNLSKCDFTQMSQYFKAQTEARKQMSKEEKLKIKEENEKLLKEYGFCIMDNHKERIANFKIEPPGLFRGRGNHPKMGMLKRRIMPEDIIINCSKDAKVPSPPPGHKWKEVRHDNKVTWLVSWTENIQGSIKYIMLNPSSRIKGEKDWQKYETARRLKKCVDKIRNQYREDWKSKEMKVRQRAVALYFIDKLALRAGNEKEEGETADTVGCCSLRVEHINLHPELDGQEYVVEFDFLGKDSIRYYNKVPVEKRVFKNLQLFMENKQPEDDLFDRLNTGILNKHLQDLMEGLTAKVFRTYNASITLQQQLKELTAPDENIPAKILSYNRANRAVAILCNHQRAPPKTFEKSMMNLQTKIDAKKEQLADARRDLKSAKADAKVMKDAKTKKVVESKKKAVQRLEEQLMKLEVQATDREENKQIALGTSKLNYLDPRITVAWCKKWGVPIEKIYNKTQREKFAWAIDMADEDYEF
# E. coli topoisomerase I = E. coli topoisomerase I (Escherichia coli, UniProt P06612); experiment: E. coli topoisomerase I relaxation activity inhibition assay; type: biochemical
# E. coli topoisomerase I, sequence (P06612 whole entry): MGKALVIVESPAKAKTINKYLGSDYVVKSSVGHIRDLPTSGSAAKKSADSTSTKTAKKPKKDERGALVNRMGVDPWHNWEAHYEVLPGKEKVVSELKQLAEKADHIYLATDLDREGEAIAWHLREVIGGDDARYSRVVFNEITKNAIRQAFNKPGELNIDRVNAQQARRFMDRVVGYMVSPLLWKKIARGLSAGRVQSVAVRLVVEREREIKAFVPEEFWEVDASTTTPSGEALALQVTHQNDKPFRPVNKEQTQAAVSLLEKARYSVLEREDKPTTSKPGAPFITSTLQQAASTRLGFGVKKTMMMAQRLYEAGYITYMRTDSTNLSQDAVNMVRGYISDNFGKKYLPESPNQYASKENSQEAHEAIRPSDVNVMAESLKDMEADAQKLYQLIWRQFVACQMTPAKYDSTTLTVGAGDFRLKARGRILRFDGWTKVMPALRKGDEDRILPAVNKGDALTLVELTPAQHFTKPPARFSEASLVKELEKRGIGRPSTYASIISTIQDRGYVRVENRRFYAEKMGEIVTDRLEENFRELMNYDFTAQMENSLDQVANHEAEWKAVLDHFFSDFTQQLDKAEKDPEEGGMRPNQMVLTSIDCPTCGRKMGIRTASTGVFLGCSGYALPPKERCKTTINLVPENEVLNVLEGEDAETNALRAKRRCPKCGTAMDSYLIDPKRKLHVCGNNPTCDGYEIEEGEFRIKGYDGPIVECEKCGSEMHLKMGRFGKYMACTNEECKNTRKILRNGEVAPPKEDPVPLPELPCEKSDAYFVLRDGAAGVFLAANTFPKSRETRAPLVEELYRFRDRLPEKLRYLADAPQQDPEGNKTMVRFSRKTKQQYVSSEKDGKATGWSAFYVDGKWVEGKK
smiles,measurement,setting,value
"Nc1ccc2c(c1)Oc1c(N3CC[C@H](N)C3)c(F)cc3c(=O)c(C(=O)O)cn-2c13 [Compound 17a, (S)-9-amino-6-(3-aminopyrrolidin-1-yl)-5-fluoro-3-oxo-3H–pyrido[3,2,1-kl]phenoxazine-2-carboxylic acid]","Whole cell based antibacterial activity (MIC, µM) M tuberculosis (H37Rv)",M tuberculosis (H37Rv); MABA,>63.1 µM
same,MIC,"M tuberculosis (H37Rv); Mycobacterium tuberculosis, H37RV, read-out: Whole cell based antibacterial activity (MIC, µM) M tuberculosis (H37Rv)",> 63.1 µM
"Nc1ccc2c(c1)Oc1c(N3CC[C@@H](N)C3)c(F)cc3c(=O)c(C(=O)O)cn-2c13 [Compound 17b, (R)-9-amino-6-(3-aminopyrrolidin-1-yl)-5-fluoro-3-oxo-3H–pyrido[3,2,1-kl]phenoxazine-2-carboxylic acid]",MIC,E. coli (MG1655) WT,> 200 µM
"Nc1ccc2c(c1)Oc1c(NCCN3CCOCC3)c(F)cc3c(=O)c(C(=O)O)cn-2c13 [Compound 11h, 9-Amino-5-fluoro-6-((2-morpholinoethyl)amino)-3-oxo-3H–pyrido[3,2,1-kl]phenoxazine-2-carboxylic acid]",IC50,Human topoisomerase I,7.8 to 15.6 µM
"CCOC(=O)c1cn2c3c(c(F)c(F)cc3c1=O)Oc1cc(C(F)(F)F)ccc1-2 [Compound 6c, Ethyl 5,6-difluoro-3-oxo-9-(trifluoromethyl)-3H–pyrido[3,2,1-kl]phenoxazine-2-carboxylate]",IC50,"E. coli topoisomerase I; pIC50, experimental, pIC50 = – logIC50, E. coli topoisomerase I",> 125 µM
"CC(=O)c1ccc2c(c1)Oc1c(F)c(F)cc3c(=O)c(C(=O)O)cn-2c13 [Compound 7d, 9-Acetyl-5,6-difluoro-3-oxo-3H–pyrido[3,2,1-kl] phenoxazine-2-carboxylic acid]",fold less active than 1 against E. coli topoisomerase I,E. coli topoisomerase I,8–16 fold
"O=C(O)c1cn2c3c(c(F)c(F)cc3c1=O)Oc1cc([N+](=O)[O-])c(Cl)cc1-2 [Compound 7e, 10-Chloro-5,6-difluoro-9-nitro-3-oxo-3H–pyrido[3,2,1-kl]phenoxazine-2-carboxylic acid]",fold less active than 1 against E. coli topoisomerase I,E. coli topoisomerase I,8–16 fold
"O=C(O)c1cn2c3c(c(F)c(F)cc3c1=O)Oc1cc(C(F)(F)F)ccc1-2 [Compound 7c, 5,6-Difluoro-3-oxo-9-(trifluoromethyl)-3H–pyrido[3,2,1-kl]phenoxazine-2-carboxylic acid]",IC50,"E. coli topoisomerase I; IC50 (µM), E. coli topoisomerase I, value as used in the CoMFA dataset (Table 2)",> 125 µM

# Reference: paper PMC5148682 (European journal of medicinal chemistry, 2016)
